# Experiment: Determination of the log P values by HPLC (formic acid method)
# Format: physicochemical
# Conditions: reversed-phase HPLC column (C 18), reversed-phase column (C 18), acidic range (pH 3.4), 55° C.
# Procedure: 1) Description of Method for Determination of the Log P Values (Formic Acid Method)
# Eluents for determination in the acidic range (pH 3.4):
# Eluent A: acetonitrile+1 ml of formic acid/liter. Eluent B: water+0.9 ml of formic acid/liter.
# The lambda max values were determined in the maxima of the chromatographic signals using the UV spectra from 200 nm to 400 nm.
row,SMILES,chromatographic logP
1,"Nc1cnn(-c2ncc(Cl)cc2Cl)n1 [2-(3,5-Dichloropyridin-2-yl)-2H-1,2,3-triazole-4-amine]",1.38
2,Nc1ccn(-c2nccc(I)c2F)n1 [1-(3-Fluoro-4-iodopyridin-2-yl)-1H-pyrazole-3-amine],1.38
3,"Nc1ccn(-c2ncnc(F)c2F)n1 [1-(5,6-Difluoropyrimidin-4-yl)-1H-pyrazole-3-amine]",0.86
4,Nc1nn(-c2ccccc2Cl)cc1Cl [4-Chloro-1-(2-chlorophenyl)-1H-pyrazole-3-amine],2.14
5,"Nc1ccn(-c2cccc(F)c2F)n1 [1-(2,3-Difluorophenyl)-1H-pyrazole-3-amine]",1.56
6,"O=C(Nc1ccn(-c2cccnc2Cl)n1)c1ccccc1I [Compound I-1-139, N-[1-(2-Chloropyridin-3-yl)-1H-pyrazol-3-yl]-2-iodobenzamide]",2.27

# Now from value to compound:
row,chromatographic logP,SMILES
1,3.8,"CCCc1ccc(C#N)c(-n2ccc(NC(=O)c3ccccc3C(F)(F)F)n2)n1 [Compound I-1-573, N-[1-(3-Cyano-6-propylpyridin-2-yl)-1H-pyrazol-3-yl]-2-(trifluoromethyl)benzamide]"
2,1.38,"Nc1cc(F)c(-n2ccc(NC(=O)c3ccccc3C(=O)O)n2)c(F)c1 [Compound I-1-643, 2-{[1-(4-Amino-2,6-difluorophenyl)-1H-pyrazol-3-yl]carbamoyl}benzoic acid]"

# Same assay, conditions: reversed-phase column (C 18), acidic range (pH 3.4), 55° C.
row,SMILES,log P
1,CC(C)c1nn(C)c(C(=O)Nc2ccn(-c3c(F)cccc3F)n2)c1[N+](=O)[O-] [Compound I-1-290],2.93
2,CCCc1nn(C)c(C(=O)Nc2ccn(-c3c(F)cccc3F)n2)c1Cl [Compound I-1-313],3.68
3,O=C(Nc1ccn(-c2ncc(F)cc2F)n1)c1ccncc1C(F)(F)F [Compound I-1-153],1.96
4,CCc1cc(NC(=O)c2ccccc2I)nn1-c1ccc(F)cc1F [Compound I-1-215],4.15
5,O=C(Nc1ccn(-c2ccccc2Cl)n1)c1ccccc1C(F)F [Compound I-1-13],3.03
6,Cc1ccc(-n2ccc(NC(=O)c3ccccc3Cl)n2)c(Cl)c1 [Compound I-1-339],3.20
7,Cc1nn(C(F)F)c(C(=O)Nc2ccn(-c3c(F)cccc3F)n2)c1F [Compound I-1-231],2.89
8,Cc1cccc(C)c1C(=O)Nc1ccn(-c2ccccc2Cl)n1 [Compound I-1-353],2.97
9,Cc1nc(C)c(C(=O)Nc2ccn(-c3c(F)cccc3F)n2)s1 [Compound I-1-113],2.09
10,Cn1nc(C(F)(F)F)c(C(=O)Nc2ccn(-c3c(F)cccc3F)n2)c1C(F)(F)F [Compound I-1-238],2.99
11,O=C(Nc1ccn(-c2cc(F)cnc2F)n1)c1ccccc1C(F)(F)F [Compound I-1-224],2.72
12,O=C(Nc1ccn(-c2c(F)cccc2F)n1)c1c(Cl)cccc1Cl [Compound I-1-267],2.72
13,O=C(Nc1ccn(-c2cc(F)c(F)cc2F)n1)c1ccccc1Cl [Compound I-1-195],3.94
14,CS(=O)(=O)c1ccccc1-n1ccc(NC(=O)c2ccccc2I)n1 [Compound I-1-184],2.10
15,O=C(Nc1ccn(-c2ncccc2Cl)n1)c1ccccc1C(F)(F)F [Compound I-1-135],2.41
16,O=C(Nc1ccn(-c2cccc(Cl)c2Cl)n1)c1ccccc1Cl [Compound I-1-188],3.38

row,SMILES,log P
1,O=C(Nc1ccn(-c2cc(F)c(F)cc2F)n1)c1ccccc1C(F)(F)F [Compound I-1-193],3.73
2,O=C(Nc1ccn(-c2ccccc2Cl)n1)c1ccccc1C(F)(F)F [Compound I-1-14],2.96
3,Cc1snnc1C(=O)Nc1ccn(-c2c(F)cccc2F)n1 [Compound I-1-332],2.45
4,O=C(Nc1ccn(-c2c(F)cccc2F)n1)c1c(F)cccc1Cl [Compound I-1-85],2.60
5,C#CCN(C(=O)c1ccccc1Cl)c1ccn(-c2ccccc2Cl)n1 [Compound I-1-23],3.25
6,O=C(Nc1ccn(-c2cc(F)cnc2F)n1)c1ccccc1Cl [Compound I-1-225],2.59
7,Cc1cccc(C)c1C(=O)Nc1ccn(-c2c(F)cccc2F)n1 [Compound I-1-268],2.68
8,O=C(Nc1ccn(-c2ccccc2C(F)(F)F)n1)c1ccccc1C(F)(F)F [Compound I-1-6],2.75
9,O=C(Nc1ccn(-c2cc(F)c(F)cc2F)n1)c1cccnc1C(F)(F)F [Compound I-1-192],3.42
10,O=C(Nc1ccn(-c2cccc(F)c2F)n1)c1ccccc1C(F)(F)F [Compound I-1-65],3.13
11,Cc1cc(NC(=O)c2ccccc2Cl)nn1-c1ccc(F)cc1F [Compound I-1-212],3.58
12,Cn1nc(C(F)F)c(C(=O)Nc2ccn(-c3c(F)cccc3F)n2)c1F [Compound I-1-283],2.27
13,Cc1nn(C)c(C)c1C(=O)Nc1ccn(-c2c(F)cccc2F)n1 [Compound I-1-109],1.77
14,O=C(Nc1ccn(-c2ncccc2Cl)n1)c1ccccc1I [Compound I-1-138],2.36
15,O=C(Nc1ccn(-c2c(F)cccc2F)n1)c1snnc1C1CC1 [Compound I-1-319],2.68
16,O=C(Nc1ccn(-c2ncc(F)cc2F)n1)c1ccccc1Br [Compound I-1-144],2.36

# Continued, values first:
row,log P,SMILES
1,2.54,O=C(Nc1cnn(-c2ccccc2Cl)n1)c1cccnc1C(F)(F)F [Compound I-2-4]
2,2.51,COc1ccc(Cl)c(C(=O)Nc2ccn(-c3ncc(F)cc3F)n2)c1 [Compound I-1-483]
3,2.89,O=C(Nc1ccn(-c2ncc(Cl)cc2F)n1)c1ccccc1I [Compound I-1-593]
4,2.60,O=C(Nc1ccn(-c2ncc(Cl)cc2F)n1)c1c(F)cccc1F [Compound I-1-588]
5,1.79,O=C(Nc1ccn(-c2ncc(F)cc2F)n1)c1cccnc1I [Compound I-1-495]
6,2.53,O=C(Nc1ccn(-c2ncc(F)cc2F)n1)c1ccsc1I [Compound I-1-494]
7,2.36,O=C(Nc1cnn(-c2c(F)cccc2F)n1)c1cnccc1C(F)(F)F [Compound I-2-83]
8,2.55,COc1ccccc1C(=O)Nc1ccn(-c2ncc(F)cc2F)n1 [Compound I-1-496]
9,2.69,O=C(Nc1ccn(-c2ncccc2C(F)(F)F)n1)c1cccnc1C(F)(F)F [Compound I-1-426]
10,2.93,Cc1nn(-c2ccccc2Cl)nc1NC(=O)c1ccccc1C(F)(F)F [Compound I-2-21]
11,2.79,Cn1nc(C(F)(F)F)c(C(=O)Nc2ccn(-c3ncc(F)cc3F)n2)c1C(F)(F)F [Compound I-1-451]
12,2.69,CCc1cccc(F)c1C(=O)Nc1ccn(-c2ncc(F)cc2F)n1 [Compound I-1-487]
13,1.29,Cn1cnnc1C(=O)Nc1ccn(-c2ncc(F)cc2F)n1 [Compound I-1-544]
14,2.91,O=C(Nc1ccn(-c2ncc(Cl)cc2F)n1)c1ccccc1C(F)(F)F [Compound I-1-587]
15,3.15,O=C(Nc1ccn(-c2ccccc2Cl)n1)c1sccc1C(F)(F)F [Compound I-1-375]
16,2.26,O=C(Nc1cnn(-c2ncccc2Cl)n1)c1ccccc1Br [Compound I-2-13]
17,2.64,O=C(Nc1ccn(-c2cccc(Cl)c2F)n1)c1cccnc1Br [Compound I-1-558]
18,2.55,N#Cc1cc(F)ccc1-n1ccc(NC(=O)c2ccccc2Br)n1 [Compound I-1-629]
19,2.31,O=C(Nc1ccn(-c2ncccc2Br)n1)c1ccccc1Br [Compound I-1-552]
20,2.99,O=C(Nc1ccn(-c2ncc(Cl)cc2F)n1)c1ccsc1I [Compound I-1-592]

row,log P,SMILES
1,2.28,O=C(Nc1cnn(-c2ncc(F)cc2F)n1)c1ncccc1C(F)(F)F [Compound I-2-84]
2,2.61,O=C(Nc1ccn(-c2ncc(F)cc2F)n1)c1sccc1Cl [Compound I-1-503]
3,2.75,O=C(NC1=NN(c2c(F)cccc2F)CC1)c1ccccc1Cl [Compound I-4-1]
4,2.77,O=C(Nc1ccn(-c2ncc(F)cc2F)n1)c1ccccc1OC(F)(F)F [Compound I-1-463]
5,2.34,N#Cc1cncnc1-n1ccc(NC(=O)c2ccccc2C(F)(F)F)n1 [Compound I-1-594]
6,4.87,O=C(c1ccccc1C(F)(F)F)N(C(=O)c1ccccc1C(F)(F)F)c1nn(-c2ccccc2Cl)nc1Cl [Compound I-2-20]
7,2.75,CC1=C(C(=O)Nc2ccn(-c3ccccc3Cl)n2)SCCO1 [Compound I-1-372]
8,3.05,O=C(Nc1ccn(-c2ccccc2Cl)n1)c1c(F)cccc1C(F)(F)F [Compound I-1-384]
9,2.16,O=C(Nc1ccn(-c2ccccc2[N+](=O)[O-])n1)c1cccnc1C(F)(F)F [Compound I-1-416]
10,2.45,O=C(Nc1ccn(-c2cnc(Cl)cn2)n1)c1cccnc1C(F)(F)F [Compound I-1-386]
11,2.93,CCCn1ncc(I)c1C(=O)Nc1ccn(-c2ncc(F)cc2F)n1 [Compound I-1-541]
12,2.22,O=C(Nc1cnn(-c2ncccc2Cl)n1)c1ccccc1Cl [Compound I-2-12]
13,2.72,O=C(Nc1ccn(-c2ncc(F)cc2F)n1)c1cccc(Cl)c1Cl [Compound I-1-476]
14,2.79,N#Cc1c(F)cccc1-n1ccc(NC(=O)c2ccsc2I)n1 [Compound I-1-624]
15,3.06,O=C(Nc1ccn(-c2ncc(Cl)cc2Cl)n1)c1ccccc1I [Compound I-1-433]
16,2.27,O=C(Nc1ccn(-c2ccccc2Cl)n1)c1cccnc1I [Compound I-1-369]
17,3.24,O=C(Nc1nn(-c2ccccc2Br)nc1Cl)c1ccccc1I [Compound I-2-32]
18,2.98,CCc1nn(C)c(C(=O)Nc2ccn(-c3ncc(F)cc3F)n2)c1Cl [Compound I-1-534]
19,2.15,Cc1snnc1C(=O)Nc1ccn(-c2ncc(F)cc2F)n1 [Compound I-1-546]

# From patent US9802899B2, “Heterocyclic compounds as pesticides” (BAYER CROPSCIENCE AG, priority 2012, dated 2017)
